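Each compound was tested at five concentrations against cells in 96-well plates for 48 hours. The concentration for 50% growth inhibition is given as GI50. Definition used: TGI = concentration required for complete inhibition of growth.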
How the values were obtained:
Experiment in all cases: NCI-60 cell line screen, 48 h
[1] = test system: HCT-116 colon
[2] = test system: OVCAR-4 ovarian
[3] = test system: SN12C renal
[4] = test system: NCI-H23 lung
[5] = test system: 786-0 renal
[6] = test system: HCT-15 colon
[7] = test system: A498 renal
[8] = test system: SK-MEL-28 melanoma
[9] = test system: MCF7 breast
[10] = test system: NCI-H226 lung

| Compound | TGI [1] | TGI [2] | TGI [3] | TGI [4] | TGI [5] | TGI [6] | TGI [7] | TGI [8] | TGI [9] | TGI [10] | GI50 [1] | GI50 [2] | GI50 [3] | GI50 [4] | GI50 [6] | GI50 [7] | GI50 [8] | GI50 [9] | GI50 [10] |
| --- | --- | --- | --- | --- | --- | --- | --- | --- | --- | --- | --- | --- | --- | --- | --- | --- | --- | --- | --- |
| O=C(Oc1cc(=O)c(OC(=O)c2ccccc2)co1)c1ccccc1 | > 100 µM | > 100 µM | > 100 µM | > 100 µM | > 100 µM | > 100 µM | > 100 µM | > 100 µM | > 100 µM | > 100 µM | – | – | – | – | – | – | – | – | – |
| CC1CN=C(N(C(=O)Nc2ccc(F)c(Cl)c2)c2ccccc2)S1 (stereo unspecified) | 67.8 µM | > 100 µM | 49.9 µM | 52 µM | 56 µM | 75.3 µM | 62.1 µM | 33.5 µM | 25.9 µM | – | – | – | – | – | – | – | – | – | – |
| Cc1ccc(CC[P+](=O)CCc2ccc(C)nc2)cn1 | > 100 µM | > 100 µM | > 100 µM | > 100 µM | > 100 µM | > 100 µM | – | > 100 µM | > 100 µM | > 100 µM | – | – | – | – | – | – | – | – | – |
| COc1ccc(-c2c3c([nH]c(=S)c2C#N)CC(C)(C)CC3=O)cc1 | > 100 µM | > 100 µM | > 100 µM | > 100 µM | > 100 µM | > 100 µM | > 100 µM | > 100 µM | > 100 µM | > 100 µM | – | – | – | – | – | – | – | – | – |
| C=C1c2cc3c(cc2CC12Cc1cc4c(cc1C2=O)CCC4)CCC3 (stereo unspecified) | > 100 µM | > 100 µM | – | > 100 µM | > 100 µM | > 100 µM | > 100 µM | > 100 µM | > 100 µM | – | – | – | – | – | – | – | – | – | – |
| COc1ccc(-c2oc(/C=N/NC(N)=S)c([N+](=O)[O-])c2-c2ccc(OC)c(OC)c2)cc1OC | 41.1 µM | 61.6 µM | > 100 µM | > 100 µM | > 100 µM | > 100 µM | – | 86.1 µM | – | 62.4 µM | – | – | – | – | – | – | – | – | – |
| CNc1ncnc2c1cnn2COCC(O)CO (stereo unspecified) | > 100 µM | > 100 µM | > 100 µM | > 100 µM | > 100 µM | > 100 µM | > 100 µM | > 100 µM | > 100 µM | > 100 µM | – | – | – | – | – | – | – | – | – |
| C[C@@H](Cl)[C@H]1CCCN(Cc2ccc(Br)cc2)C1 | – | > 12.5 µM | – | > 12.5 µM | > 12.5 µM | > 12.5 µM | > 12.5 µM | > 12.5 µM | > 12.5 µM | > 12.5 µM | – | – | – | – | – | – | – | – | – |
| CC(O)CCCOC(c1ccccc1)(c1ccccc1)c1ccccc1 (stereo unspecified) | 26.9 µM | 28.1 µM | 30.6 µM | 27.6 µM | 30.3 µM | 29.8 µM | 34.7 µM | 30.1 µM | 28.3 µM | 30.2 µM | – | – | – | – | – | – | – | – | – |
| CCOC(=O)c1nc2ccc(C(F)(F)F)cc2nc1Oc1ccc(C#N)cc1 | > 100 µM | 83.8 µM | – | > 100 µM | 35.6 µM | > 100 µM | 57.1 µM | > 100 µM | 37.7 µM | 34.8 µM | – | – | – | – | – | – | – | – | – |
| C[C@@H]1S[C@H](c2ccccc2F)N2Cc3ccccc3N=C12 | 42.2 µM | 85.4 µM | 42.2 µM | > 100 µM | 63.1 µM | > 100 µM | – | > 100 µM | > 100 µM | > 100 µM | – | – | – | – | – | – | – | – | – |
| CCC1=CC2CN3Cn4c(c(COCc5c6n(c7ccccc57)CN5CC7C=C(CC)C5C6(C(=O)OC)C7)c5ccccc54)C(C(=O)OC)(C2)C13 | > 100 µM | > 100 µM | > 100 µM | > 100 µM | > 100 µM | > 100 µM | > 100 µM | > 100 µM | – | > 100 µM | – | – | – | – | – | – | – | – | – |
| O=C(Nc1ccccc1F)c1cc2ccc(O)cc2oc1=Nc1ccccc1F | 4.01 µM | 3.94 µM | – | 4.52 µM | 3.34 µM | 6.28 µM | – | 5.8 µM | 11.3 µM | – | – | – | – | – | – | – | – | – | – |
| O=C(NCCCN(CCCCN(CCCNC(=O)C(F)(F)F)Cc1ccc2ccccc2c1)Cc1ccc2ccccc2c1)C(F)(F)F | > 100 µM | > 100 µM | > 100 µM | – | > 100 µM | > 100 µM | > 100 µM | 5.88 µM | 4.54 µM | > 100 µM | – | – | – | – | – | – | – | – | – |
| Cc1cn(-c2cc(C(=O)Nc3cccc(-n4ccc5c(NC(=O)c6ccccc6)nccc54)c3)cc(C(F)(F)F)c2)cn1 | 1.35 µM | 18 µM | 17.1 µM | 19.9 µM | – | 4.71 µM | 1.71 µM | 5.41 µM | 2.39 µM | 17.1 µM | 0.291 µM | 1.17 µM | 1.04 µM | 1.06 µM | 0.29 µM | 0.223 µM | 0.546 µM | 0.361 µM | 0.524 µM |
| Cc1cn([C@@H]2C[C@H](CO)[C@@H](O)C2)c(=O)[nH]c1=O | > 100 µM | > 100 µM | > 100 µM | > 100 µM | – | > 100 µM | – | > 100 µM | – | > 100 µM | – | – | – | – | – | – | – | – | – |
| CC(C)(C)OC(=O)NCCC(N)=S | > 100 µM | – | > 100 µM | > 100 µM | > 100 µM | > 100 µM | > 100 µM | > 100 µM | > 100 µM | > 100 µM | – | – | – | – | – | – | – | – | – |
| N#CCc1nc(-c2ccccc2)n[nH]1 | > 100 µM | > 100 µM | > 100 µM | > 100 µM | > 100 µM | > 100 µM | – | – | > 100 µM | – | – | – | – | – | – | – | – | – | – |
| NCCCN1CCN(CCCNc2ccc3nnn4c5ccccc5c(=O)c2c34)CC1 | 37.7 µM | 33.1 µM | 30.7 µM | 33.3 µM | 33.1 µM | > 100 µM | 40.6 µM | > 100 µM | 74.7 µM | – | – | – | – | – | – | – | – | – | – |
| COc1c(O)c2c3c(c(C)cc(O)c3c1O)C(=O)C(O)(C(C)(C)C(C)=O)C2=O (stereo unspecified) | > 100 µM | > 100 µM | > 100 µM | > 100 µM | > 100 µM | > 100 µM | – | > 100 µM | – | 34.6 µM | – | – | – | – | – | – | – | – | – |
| CC1(C)C2CC(=O)C1(C)C(O)C2Br (stereo unspecified) | > 100 µM | – | > 100 µM | > 100 µM | > 100 µM | > 100 µM | > 100 µM | > 100 µM | > 100 µM | > 100 µM | – | – | – | – | – | – | – | – | – |
| COc1nc2ncc([C@@H](OC(C)=O)[C@@H](COC(C)=O)OC(C)=O)nc2c(=O)[nH]1 | > 100 µM | > 100 µM | > 100 µM | – | > 100 µM | > 100 µM | > 100 µM | > 100 µM | > 100 µM | > 100 µM | – | – | – | – | – | – | – | – | – |

Source: PubChem BioAssay (NCI)
